Experiments:
[1] = biological target: High-affinity choline transporter 1 (Rattus norvegicus) (UniProt Q9JMD7); assay: Inhibition constant of high-affinity choline uptake
[2] = biological target: High-affinity choline transporter 1 (Rattus norvegicus) (UniProt Q9JMD7); assay: Inhibition of high affinity choline uptake at concentration of 1 uM
[3] = Enzyme inhibition dissociation constant for choline acetyl transferase (ChAcT) was determined

Sequence of High-affinity choline transporter 1 (Rattus norvegicus) (Q9JMD7 whole entry, looked up): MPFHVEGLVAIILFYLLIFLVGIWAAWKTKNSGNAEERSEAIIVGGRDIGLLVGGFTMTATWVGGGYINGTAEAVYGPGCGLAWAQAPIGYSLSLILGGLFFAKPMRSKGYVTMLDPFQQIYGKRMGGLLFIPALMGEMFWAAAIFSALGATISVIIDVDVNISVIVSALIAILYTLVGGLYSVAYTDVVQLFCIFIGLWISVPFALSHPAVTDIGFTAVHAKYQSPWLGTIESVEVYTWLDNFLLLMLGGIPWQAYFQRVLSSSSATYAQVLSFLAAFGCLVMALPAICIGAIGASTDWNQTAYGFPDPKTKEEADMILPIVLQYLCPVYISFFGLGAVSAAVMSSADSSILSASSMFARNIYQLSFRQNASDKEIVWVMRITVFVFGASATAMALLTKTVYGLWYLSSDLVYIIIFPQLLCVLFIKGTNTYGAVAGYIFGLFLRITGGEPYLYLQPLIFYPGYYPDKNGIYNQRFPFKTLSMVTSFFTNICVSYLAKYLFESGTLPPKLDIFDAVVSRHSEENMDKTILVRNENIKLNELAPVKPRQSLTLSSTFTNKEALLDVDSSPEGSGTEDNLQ

Structure (SMILES)	Ki [1]	IC50 [2]	Ki [3]
C[N+](C)(C)c1cccc(O)c1O [(2,3-Dihydroxy-phenyl)-trimethyl-ammonium; iodide]	60 µM	83 µM	15 mM
C[N+](C)(C)CC(O)c1ccc(O)c(O)c1 (stereo not given) [[2-(3,4-Dihydroxy-phenyl)-2-hydroxy-ethyl]-trimethyl-ammonium; iodide]	130 µM	221 µM	–

Source: BindingDB's records for doi:10.1021/jm00065a012 (University of Toledo, 1993)
